Experiments:
Test in all cases: area under concentration-response curve (viability) (AUC (a.u.)); higher = less active
Conditions in all cases: 48 h
CU-ACC1 = test system: CU-ACC1
In short: (§1)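 Luminescence from CellTiter-Glo, read after 48 h, measured three adrenocortical carcinoma cell lines treated in 1,536-well plates with library compounds at 11 concentrations. Values were normalised per plate to vehicle and empty-well controls. The AC50 and area under the curve come from fitted concentration-response curves in inhibitory or non-responding classes only.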

CU-ACC2 = test system: CU-ACC2
In short: as §1

NCI-H295R = test system: NCI-H295R
In short: as §1

Compound | area under concentration-response curve (CU-ACC1) | area under concentration-response curve (CU-ACC2) | area under concentration-response curve (NCI-H295R)
O=C(Cc1ccc(-c2ccc(OCCN3CCOCC3)cc2)cn1)NCc1ccccc1 | 397 | 531 | 493
C[N]1C=C(C2=CC=CC=C12)/C3=C(/C(=O)NC3=O)C4=C[N](C)C5=CC(=CC=C45)[N+]([O-])=O | 611 | 608 | 454
O=C(NCC1CCCCN1)c1cc(OCC(F)(F)F)ccc1OCC(F)(F)F (stereo not drawn) | 431 | 527 | 525
CC(C)=CCC[C@](C)(O[C@@H]1O[C@H](CO[C@@H]2O[C@H](CO)[C@@H](O)[C@H](O)[C@H]2O)[C@@H](O)[C@H](O)[C@H]1O)[C@H]1CC[C@]2(C)[C@@H]1[C@H](O)C[C@@H]1[C@@]3(C)CC[C@H](O[C@@H]4O[C@H](CO)[C@@H](O)[C@H](O)[C@H]4O[C@@H]4O[C@H](CO)[C@@H](O)[C@H](O)[C@H]4O)C(C)(C)[C@@H]3CC[C@]12C | 533 | 637 | 591
Cc1cnc(C(=O)O)c[n+]1[O-] | 513 | 579 | 526
O=C1[O][Pt]2([NH]C3CCCCC3[NH]2)[O]C1=O (stereo not drawn) | 564 | 631 | 565
O=C1NC(=O)/C(=C/c2ccc3nccnc3c2)S1 | 452 | 443 | 496
CCN(C(=O)c1ccccc1OC)c1cc2c(cc1N1CCNC[C@H]1C)n(C)c(=O)n2C | 544 | 628 | 510
COc1ccc(Nc2nccc(NCCO)n2)cc1 | 496 | 578 | 517
Cc1coc2c1C(=O)C(=O)c1c-2ccc2c1CCCC2(C)C | 433 | 479 | 456
CC[C@@H](C(N)=O)N1CCCC1=O | 532 | 520 | 545
CN(CC(=O)N(Cc1ccc(C2CCCCC2)cc1)c1ccc(C(=O)O)c(O)c1)[S+](=O)([O-])c1c(F)c(F)c(F)c(F)c1F | 486 | 558 | 536
O=c1oc2c(O)c(O)cc3c(=O)oc4c(O)c(O)cc1c4c23 | 482 | 579 | 517
CCCc1cc(C(N)=S)ccn1 | 587 | 649 | 581
C/C1=C/C[C@@H](/C(C)=C/c2csc(C)n2)OC(=O)C[C@H](O)C(C)(C)C(=O)[C@H](C)[C@@H](O)[C@@H](C)CCC1 | 480 | 567 | 426
OC[C@H]1O[C@H]([C@H](O)[C@@H]1O)N2/C=C\C=N/C2=O | 525 | 609 | 583
Cc1c(N)nc([C@H](CC(N)=O)NC[C@@H](N)C(N)=O)nc1C(=O)N[C@H](C(=O)N[C@@H](C)[C@H](O)[C@@H](C)C(=O)N[C@@H](C(=O)NCCc1nc(-c2nc(C(=O)NCCC[S+](C)C)cs2)cs1)[C@@H](C)O)C(O[C@H]1O[C@H](CO)[C@H](O)[C@@H](O)[C@H]1O[C@H]1O[C@H](CO)[C@@H](O)[C@H](OC(N)=O)[C@@H]1O)c1c[nH]cn1 (stereo partly drawn) | 508 | 614 | 530
C[N]1C=C(C2=C1C=CC=C2)\C3=C(\C(=O)NC3=O)C4=C5CC(CN)CC[N]5C6=C4C=CC=C6 (stereo not drawn) | 517 | 620 | 559
Cc1ccc([S+](=O)([O-])N[C@@H](Cc2ccccc2)C(=O)CCl)cc1 | 530 | 628 | 584
C[Se]CCC(N)C(=O)O (stereo not drawn) | 540 | 550 | 479
Cc1ccc(O)c(C(CCN(C(C)C)C(C)C)c2ccccc2)c1.Cl (stereo not drawn) | 491 | 625 | 558
COC(=O)/C=C/C(=O)OC | 525 | 608 | 550
COc1cc2nccc(Oc3ccc(NC(=O)Nc4ccc(F)cc4F)c(F)c3)c2cc1OC | 548 | 623 | 515

Compound | area under concentration-response curve (CU-ACC1) | area under concentration-response curve (CU-ACC2) | area under concentration-response curve (NCI-H295R)
O=C(NCc1ccncc1)C12C[C@H]3C[C@@H](C1)CC(c1ccc(Cl)cc1)(C3)C2 | 486 | 576 | 468
COC/1=C(\CNC(=O)C2=C(C)[N]([C@H](C)C3CCN(CC3)CC(F)(F)F)C4=C2C=CC=C4)C(=O)N/C(=C1)C | 453 | 556 | 470
Oc1ccc(OCc2ccccc2)cc1 | 378 | 353 | 417
Cn1cc(-c2ccc(-c3cncc(Cl)c3N3CCC4(CCNC4=O)CC3)cc2)cn1 | 521 | 622 | 514
N\C1=N\C2=C(N=C[N]2COCCO)C(=O)N1 | 420 | 616 | 584
CC(S)C(=O)NCC(=O)O (stereo not drawn) | 547 | 632 | 563
CC(=O)NC(CS)C(=O)O (stereo not drawn) | 413 | 466 | 457
C[C@]\12CCC(=O)\C=C1CC[C@H]3[C@@H]4CC[C@](O)(C(=O)CO)[C@@]4(C)C[C@H](O)[C@H]23 | 458 | 549 | 512
Nc1nc(F)nc2c1ncn2[C@@H]1O[C@H](COP(=O)(O)O)[C@@H](O)[C@@H]1O | 527 | 521 | 514
Cc1nc2ccc(-n3ncc(C(=O)c4cc5ccccc5[nH]4)c3N)cc2[nH]1 | 550 | 595 | 519
COC1=CC=C2/C3=N/CCN3\C(=N/C2=C1OC)NC(=O)C4=CC=CN=C4 | 662 | 698 | 619
O=C(O)[C@@H](c1ccc(OCc2ccc3ccccc3n2)cc1)C1CCCC1 | 454 | 561 | 493
C#Cc1cccc(Nc2ncnc3cc4c(cc23)OCCOCCOCCO4)c1 | 462 | 599 | 546
COc1ccc2c(OCc3nnc4ccc(-c5ccccc5)nn34)ccnc2c1 | 520 | 609 | 589
CCC1(c2ccc(N)cc2)CCC(=O)NC1=O (stereo not drawn) | 591 | 631 | 568
COC/1=C/C=C2\C(=C/C1=O)[C@H](CCC3=CC(=C(OC)C(=C23)OC)OC)NC(C)=O | 536 | 548 | 480
Nc1nc(OC(c2ccc(-c3cccc(F)c3)cc2)C(F)(F)F)cc(-c2ccc(C[C@H](N)C(=O)O)cc2)n1 (stereo partly drawn) | 546 | 519 | 555
N[S+]([O-])(=O)C1=C(Cl)C=C2\N=C/N[S+]([O-])(=O)C2=C1 | 548 | 646 | 576
COc1cccc(Nc2ncnn3ccc(CN4CC[C@@H](N)[C@H](O)C4)c23)c1 | 399 | 534 | 552
Nc1cccc2c1C(=O)N(C1CCC(=O)NC1=O)C2=O (stereo not drawn) | 520 | 645 | 567
CC(C)Oc1ccc(-c2nc(-c3cccc4c3CC[C@@H]4NCCO)no2)cc1C#N | 370 | 502 | 481
NCC/1=C/NC(=S)N1[C@H]2CCC3=C(F)C=C(F)C=C3C2 | 495 | 547 | 550
CC(=O)O[C@@]12CO[C@@H]1C[C@H](O)[C@]3(C)[C@@H]2[C@H](OC(=O)C4=CC=CC=C4)[C@]5(O)C[C@H](O)/C(=C(/[C@@H](O)C3=O)C5(C)C)C | 507 | 539 | 491

From the supplement of paper PMC10949913
